# Experimental data taken from the OPERA property sets (Mansouri et al. 2018).
structure (smiles),measurement,setting,value
CC(C)(C)c1ccc(CCOc2ncnc3ccccc23)cc1,logP,,5.51
same,solubility,20 °C,0.000718 mM
CCOP(=S)(OCC)OC(Cl)C(Cl)(Cl)Cl (centres undefined),logP,,4.59
CC(C)C(O)(c1ccc(OC(F)(F)F)cc1)c1cncnc1 (centres undefined),logP,,3.34
same,solubility,20 °C,0.365 mM
CC(C)c1ccc(NC(=O)N(C)C)cc1,solubility,22 °C,0.291 mM
COc1cccc(N(C)C(=S)Oc2cccc(C(C)(C)C)c2)n1,solubility,20 °C,0.000968 mM
CCOS(=O)(=O)c1ccc2c(c1)C(C)(C)CO2,logP,,2.41
"CC(C)(C)[C@@H](O)[C@@H](Cc1ccc(Cl)cc1)n1cncn1 (single isomer, unassigned)",solubility,20 °C,0.103 mM
CN(C(O)=NC(C)(C)c1ccccc1)c1ccccc1,solubility,20 °C,0.447 mM
S=C([S-])NCCNC(=S)[S-].[Na+].[Na+],solubility,,780 mM
CCCOC(=O)c1ccc(C(=O)OCCC)nc1,logP,,3.57
CC(C)(C)c1ccc(CSc2cnn(C(C)(C)C)c(=O)c2Cl)cc1,logP,,6.37
CNc1nc(NC(C)C)nc(SC)n1,logP,,2.38
CS(=O)(=O)NC(=O)c1cc(Oc2ccc(C(F)(F)F)cc2Cl)ccc1[N+](=O)[O-],logP,,2.9
O=C(NC(=O)c1c(F)cccc1F)Nc1cc(Cl)c(Oc2ncc(C(F)(F)F)cc2Cl)c(Cl)c1,logP,,5.8
COCCOc1ccccc1S(=O)(=O)N=C(O)N=c1nc(OC)[nH]c(OC)n1,logP,,2.04
CC(Oc1ccc(Oc2ccc(Cl)cc2Cl)cc1)C(=O)O (centres undefined),logP,,4.58
O=C1CCc2cccc3c2N1CC3,logP,,1.57
CCCCN(CCCC)SN(C)C(=O)Oc1cccc2c1OC(C)(C)C2,solubility,25 °C,0.000788 mM
CCCCCCCCn1sccc1=O,logP,,2.45
ClC1=C(Cl)C(Cl)(C2(Cl)C(Cl)=C(Cl)C(Cl)=C2Cl)C(Cl)=C1Cl,solubility,20 °C,5.27e-05 mM
COC(=O)Nc1cccc(OC(=O)Nc2cccc(C)c2)c1,logP,,3.59
COc1cc(OC)nc(N=C(O)NS(=O)(=O)Nc2ccccc2C(=O)C2CC2)n1,solubility,"pH 5.0, 25 °C",0.000403 mM
CC1(C)CON(Cc2ccccc2Cl)C1=O,logP,,2.5
COc1ccc(C(=CC(=O)N2CCOCC2)c2ccc(Cl)cc2)cc1OC,logP,,2.68
NCCO.O=C(Nc1ccc([N+](=O)[O-])cc1Cl)c1cc(Cl)ccc1O,solubility,20 °C,0.258 mM
Clc1ccccc1-c1nnc(-c2ccccc2Cl)nn1,logP,,3.1
COCC(C)N(C(=O)CCl)c1c(C)csc1C (centres undefined),logP,,2.15
same,solubility,25 °C,4.35 mM
CC(Oc1ccc(Oc2cnc3cc(Cl)ccc3n2)cc1)C(=O)O (centres undefined),solubility,20 °C,0.00087 mM
COc1ccc(C(O)(c2cncnc2)C2CC2)cc1 (centres undefined),logP,,1.91
CC1COc2ccccc2N1C(=O)C(Cl)Cl (centres undefined),logP,,2.7
same,solubility,20 °C,0.0769 mM
CCCCOC(=O)C1(O)c2ccccc2-c2ccccc21,solubility,20 °C,0.129 mM
COP(=S)(OC)Oc1c(Cl)cc(C)cc1Cl,logP,,4.56
same,solubility,25 °C,0.0022 mM
O=C1OCc2c(Cl)c(Cl)c(Cl)c(Cl)c21,solubility,25 °C,0.00919 mM
CCOc1ccc(C(C)(C)COCc2cccc(Oc3ccccc3)c2)cc1,logP,,7.05
CCCN(CCC)C(=O)SCc1ccccc1,logP,,4.65
same,solubility,20 °C,0.0525 mM
CNC(=O)Oc1cc(C)c(SC)c(C)c1,solubility,20 °C,0.0729 mM
CCOCN(C(=O)CCl)c1c(C)cccc1CC,logP,,3.03
CCOC(=O)c1cnn(C)c1S(=O)(=O)NC(=O)Nc1nc(OC)cc(OC)n1,solubility,20 °C,0.035 mM
COC(=O)/C(C)=C/OP(=S)(OC)OC,solubility,20 °C,1.67 mM
Cc1cnc(C2=NC(=O)C(C)(C(C)C)N2)c(C(=O)O)c1 (centres undefined),logP,,2.47
same,solubility,25 °C,8.11 mM
C=C(C)CN(CC)c1c([N+](=O)[O-])cc(C(F)(F)F)cc1[N+](=O)[O-],logP,,5.11
COc1ccc(NC(=O)N(C)C)cc1Cl,solubility,25 °C,2.62 mM
O=C1C(Cl)=C(Cl)C(=O)N1c1ccc(F)cc1,logP,,2.3
CNC(=O)Oc1ccc(C)c(C)c1,solubility,20 °C,7.25 mM
CCOC(=O)C1(C)OC(=O)N(c2cc(Cl)cc(Cl)c2)C1=O (centres undefined),solubility,25 °C,0.0241 mM
CN(C)C(=O)SCCCCOc1ccccc1,logP,,3.28
C#CCC1=C(C)C(OC(=O)C2C(C=C(C)C)C2(C)C)CC1=O (centres undefined),logP,,4.49
same,solubility,25 °C,0.0266 mM
O=C(O)CCCc1c[nH]c2ccccc12,solubility,20 °C,1.23 mM
C/C=C\COCN(C(=O)CCl)c1c(CC)cccc1CC,solubility,27 °C,0.0936 mM
CC(Oc1ccc(Oc2cnc3cc(Cl)ccc3n2)cc1)C(=O)OCC1CCCO1 (centres undefined),logP,,4.32
same,solubility,25 °C,0.00933 mM
O=C1c2ccccc2C(=O)C1C(=O)C(c1ccccc1)c1ccc(Cl)cc1 (centres undefined),solubility,20 °C,0.267 mM
Cc1nn(C)c(OCC(=O)c2ccccc2)c1C(=O)c1ccc(Cl)cc1Cl,solubility,20 °C,2.23 mM
C=CCN(CC=C)C(=O)C(Cl)Cl,logP,,1.84
Oc1ccccc1-c1ccccc1,solubility,25 °C,4.11 mM
N#Cc1c[nH]cc1-c1cccc(Cl)c1Cl,logP,,3.86
same,solubility,25 °C,0.0202 mM
CN(C)C(=O)Nc1cc(C(C)(C)C)on1,logP,,1.98
CCOP(=O)(N=C1SCC(C)S1)OCC (centres undefined),solubility,25 °C,0.212 mM
CCCN(CCC)c1c([N+](=O)[O-])cc(C(F)(F)F)c(N)c1[N+](=O)[O-],solubility,25 °C,3.71e-05 mM
Fc1ccc(C2(Cn3cncn3)OC2c2ccccc2Cl)cc1 (centres undefined),logP,,3.44
CC(C)C1(C)N=C(c2ncccc2C(=O)O)NC1=O (centres undefined),solubility,25 °C,43.3 mM
Cc1cnc2c(C(=O)O)c(Cl)ccc2c1,solubility,20 °C,1.01 mM
Cc1ccc(C(=O)COc2c(C(=O)c3ccc(Cl)c(C)c3Cl)c(C)nn2C)cc1,solubility,25 °C,0.000301 mM
CC(Oc1ccc2ccccc2c1)C(O)=Nc1ccccc1 (centres undefined),solubility,27 °C,0.00257 mM
CCCSP(=S)(OCC)Oc1ccc(Cl)cc1Cl (centres undefined),logP,,5.67
CCOC(=O)CCN(SN(C)C(=O)Oc1cccc2c1OC(C)(C)C2)C(C)C,logP,,4.3
N#CC(=NOCC1OCCO1)c1ccccc1,logP,,2.76
CCCCOC(=O)C(C)Oc1ccc(Oc2ccc(C(F)(F)F)cn2)cc1 (centres undefined),logP,,4.5
same,solubility,"pH 6.5, 23 °C",0.0031 mM
CSc1nnc(C(C)(C)C)c(=O)n1N,solubility,20 °C,5.28 mM
CCOC(=O)Nc1cccc(OC(=O)Nc2ccccc2)c1,logP,,3.39
O=C(Nc1ccc(Cl)cc1C(O)c1ccccc1)c1ccncc1 (centres undefined),solubility,30 °C,0.00295 mM
CCOP(=S)(NC(C)CC)Oc1cc(C)ccc1[N+](=O)[O-] (centres undefined),logP,,4.62
same,solubility,25 °C,0.0169 mM
CCCCOC(=O)N(C)SN(C)C(=O)Oc1cccc2c1OC(C)(C)C2,solubility,25 °C,0.0274 mM
CC#Cc1cc(C)nc(Nc2ccccc2)n1,solubility,20 °C,0.0139 mM
CC1(C)CNC(=NN=C(/C=C/c2ccc(C(F)(F)F)cc2)/C=C/c2ccc(C(F)(F)F)cc2)NC1,logP,,2.31
same,solubility,25 °C,1.21e-05 mM
CNC(=O)N(C)c1nc2ccccc2s1,logP,,2.64
O=C(NC(=O)c1c(F)cccc1F)Nc1ccc(CO/N=C(/c2ccc(Cl)cc2)C2CC2)cc1,logP,,6.97
CCc1cccc(C)c1N(COC(C)C)C(=O)CCl,solubility,20 °C,0.648 mM
COP(=S)(OC)SCC(=O)N(c1ccc(Cl)cc1)C(C)C,logP,,3.81
Nc1c(Cl)c(Cl)nc(C(=O)O)c1Cl,solubility,25 °C,1.78 mM
CCOC(=O)Cc1[nH]nc2ccc(Cl)cc12,solubility,24 °C,0.943 mM
O=c1ccc(=O)[nH][nH]1,solubility,25 °C,53.5 mM
CC(C)C1CCC(Cc2ccc(Cl)cc2)C1(O)Cn1cncn1 (centres undefined),logP,,4.21
COP(=O)(OC)O/C(=C\Cl)c1ccc(Cl)cc1Cl,solubility,20 °C,0.392 mM
CC1(C)C(C=C(Cl)Cl)C1C(=O)OC(C#N)c1ccc(F)c(Oc2ccccc2)c1 (centres undefined),logP,,5.95
CN(C)S(=O)(=O)N(SC(F)(Cl)Cl)c1ccccc1,solubility,20 °C,0.0039 mM
O=C(NC(=O)c1c(F)cccc1F)Nc1ccc(Cl)c(Oc2ncc(C(F)(F)F)cc2Cl)c1,logP,,5.1
CNC(=O)Oc1ccccc1OC(CCl)OC (centres undefined),solubility,20 °C,5.01 mM
Cc1c(Cl)ccc(OC(C)C(O)=Nc2ccccc2)c1Cl (centres undefined),solubility,25 °C,9.87e-05 mM
CCC1OCC(COc2ccc(Oc3ccccc3)cc2)O1 (centres undefined),logP,,4.35
same,solubility,25 °C,0.0163 mM
c1coc(-c2nc3ccccc3[nH]2)c1,logP,,2.67
CCOCn1c(-c2ccc(Cl)cc2)c(C#N)c(Br)c1C(F)(F)F,logP,,4.83
CCOC(=O)Cn1c(=O)sc2cccc(Cl)c21,logP,,2.5
CC(C)(C)C(O)/C(=C\c1ccc(Cl)cc1Cl)n1cncn1 (centres undefined),solubility,25 °C,0.0123 mM
O=C1c2ccccc2C(=O)C1C(=O)C(c1ccccc1)c1ccccc1,solubility,,0.000881 mM
CN(C)NC(=O)CCC(=O)O,solubility,25 °C,624 mM
CCOC(=O)CCN(Cc1ccccc1)SN(C)C(=O)O/N=C(/C)SC,logP,,3.43
CNC(=O)O/N=C(\C)C(C)S(C)(=O)=O (centres undefined),solubility,20 °C,940 mM
CON(C)C(=O)Nc1ccc(Oc2ccc3c(c2)OC(C)(OC)CC3(C)C)cc1 (centres undefined),solubility,25 °C,0.000999 mM
N#Cc1c[nH]cc1-c1cccc2c1OC(F)(F)O2,logP,,4.12
Cc1ccc(N=c2sccn2C)c(C)c1,solubility,"pH 9.0, 20 °C",0.687 mM
CCN(C(=O)SCc1ccccc1)C(C)C(C)C (centres undefined),solubility,20 °C,0.0185 mM
OC(c1ccc(F)cc1)(c1cncnc1)c1ccccc1Cl (centres undefined),logP,,3.18
same,solubility,"pH 7.0, 25 °C",0.0826 mM
CCNC(=O)C(C)OC(=O)Nc1ccccc1 (centres undefined),solubility,20 °C,14.8 mM
CCCSP(=O)(OCC)Oc1cnn(-c2ccc(Cl)cc2)c1 (centres undefined),solubility,20 °C,0.0915 mM
O=C1C(Cl)C(CCl)CN1c1cccc(C(F)(F)F)c1 (centres undefined),logP,,3.36
CCOC(=O)CCCOc1ccc(Cl)cc1C,logP,,4.26
CCOCCOC(=O)C(C)Oc1ccc(Oc2ncc(C(F)(F)F)cc2Cl)cc1 (centres undefined),logP,,4.33
CCOP(=S)(OCC)OP(=S)(OCC)OCC,logP,,3.99
COc1nc(NC(C)C)nc(NC(C)C)n1,solubility,25 °C,3.33 mM
CCCCCCC(C)OC(=O)COc1nc(F)c(Cl)c(N)c1Cl (centres undefined),solubility,20 °C,0.000245 mM
CCOP(=O)(Oc1ccc(Cl)cc1Cl)Oc1ccc(Cl)cc1Cl,solubility,20 °C,0.00168 mM
CCC(C)c1ccccc1OC(=O)NC (centres undefined),solubility,20 °C,3.18 mM
CCN(CC)C(=O)SCc1ccccc1Cl,logP,,3.43
same,solubility,23 °C,0.0931 mM
O=C(Nc1ccccc1)Nc1ccnc(Cl)c1,solubility,"pH 6.4, 21 °C",0.157 mM
CN(C)C(O)=Nc1ccc(-n2nc(C(C)(C)C)oc2=O)c(Cl)c1,logP,,2.51
Cc1nc(N(C)C)nc(OC(=O)N(C)C)c1C,logP,,1.7
Cc1ccccc1C(=O)Nc1cccc(OC(C)C)c1,solubility,20 °C,0.0472 mM
O=C(O)c1cc(Oc2ccc(C(F)(F)F)cc2Cl)ccc1[N+](=O)[O-],solubility,25 °C,0.332 mM
N=C(N)NCCCCCCCCNCCCCCCCCNC(=N)N,solubility,,2150 mM
CCCSP(=O)(OCC)SCCC,logP,,3.59
OC(Cn1cncn1)(c1ccc(F)cc1)c1ccccc1F (centres undefined),solubility,"pH 7.0, 20 °C",0.431 mM
CC1=C(C)S(=O)(=O)CCS1(=O)=O,logP,,-0.17
same,solubility,25 °C,21.9 mM
